# Laboratory results as given in patent US20260216197A1, “WRN HELICASE INHIBITOR” (SUZHOU PUHE BIOPHARMA CO., LTD., priority 2022, published 2026).
# Where two headings read alike, the source gives them in different places.
# What was measured:
# WRN helicase = WRN helicase (Homo sapiens, UniProt Q14191); assay: WRN helicase hydrolysis/unwinding of double-stranded DNA (fluorescence); type: biochemical
# Method: The activity of the molecules of the present disclosure on the hydrolysis of double-stranded PP-6TR DNA by WRN helicase was tested.
# The working solution and buffer were prepared, and the test compound was dissolved in DMSO followed by a4-fold dilution (with a final concentration of 10 μM as the starting concentration). Then, 0.2 μL of the test compound solution was added to a384-well plate, followed by 10 μL of (2×) WRN enzyme solution. The mixture was incubated in the dark for 30 minutes, after which 10 μL of substrate detection solution containing double-stranded DNA was added to initiate the reaction (DNA length: 19 bp, labeled with TAMRA at the 3′ end and BHQ2 at the 5′ end). The mixture was incubated at room temperature for 60 minutes. The inhibitory activity (IC50) against the WRN enzyme was calculated based on the fluorescence change (Ex530/Em590) between the blank group (DMSO) and the compound group.
# [1] = Pharmacokinetic evaluation in mice; type: in vivo, CD1 female mice; settings: for AUC(0-t): read-out: AUC0-24
# Method: CD1 female mice were used as test animals and the drug was administered orally/intravenously (oral dosage: 10 mg/kg, intravenous dosage: 2 mg/kg).
# Assay protocol: The oral group consisted of 3 mice per group (vehicle: 10% Hβ-CD-pH7.4), and the intravenous group consisted of 3 mice per group. […] The blood concentrations in plasma after oral and intravenous administration of mice were determined by LC/MS/MS, respectively.
# [2] = test system: MSI-H colorectal cancer SW48 cell line; assay: 2D anti-proliferative activity, MSI-H SW48 cells (CTG, 5 days); type: cell-based; settings: for inhibition at 38.15 pM: 0.038146973 nM; for inhibition at 0.000152588 µM: 0.152587891 nM; for inhibition at 0.000610352 µM: 0.610351563 nM; for inhibition at 0.00244141 µM: 2.44140625 nM; for inhibition at 0.00976562 µM: 9.765625 nM; for inhibition at 0.0390625 µM: 39.0625 nM; for inhibition at 0.15625 µM: 156.25 nM; for inhibition at 0.625 µM: 625 nM; for inhibition at […]: 2500 nM; for inhibition at 10 µM: 10000 nM
# Method: The molecules of the present disclosure were tested for their anti-proliferative activity against MSI-H tumor cells.
# The proliferation of tumor cells with microsatellite instability MSI-H is sensitive to WRN inhibitors, while the proliferation of microsatellite stable (MSS) tumor cells is insensitive to WRN inhibitors. By testing the activities of the two, it is shown that the molecules of the present disclosure have an inhibitory and synthetic lethal effect on WRN at the cellular level.
# (§1) The MSI-unstable SW48 colorectal cancer cells were cultured in RPMI 1640 medium containing 10% FBS and 1% penicillin-streptomycin in a 37° C., 5% CO2 constant temperature incubator. A 40 μL cell suspension was added to each well of a 384-well microplate. Using Echo, 40 nL of compounds at different concentrations was dispensed into each well, followed by incubation in a 37° C., 5% CO2 constant temperature incubator for 5 days. Then, 40 μL of CTG solution (Promega, Cat No. G7573) was added to each well, and the plate was incubated in the dark in a 37° C., 5% CO2 constant temperature incubator for 30 minutes. Luminescence was measured using an Envision multi-function microplate reader (Perkin Elmer, Model: Envision 2104). The luminescent signal was proportional to the amount of ATP in the system, and the amount of ATP directly represented the number of living cells in the system.
# [3] = Liver microsome stability test; type: in vitro ADME; settings: human liver microsomes 0.5 mg/mL, compound 1 μM, NADPH 1 mM, 60 minutes
# Method: The liver microsome stability test of the compounds is as follows:
# The compounds of the present disclosure were subjected to a liver microsome stability test. The compounds to be tested were co-incubated with liver microsomes of different species with or without the addition of NADPH. The final concentration of the compounds to be tested in the test system was 1 μM, the final concentration of NADPH was 1 mM, and the final concentration of liver microsomes was 0.5 mg/mL.
# [4] = test system: MSS colorectal cancer HT-29 cell line; assay: 2D anti-proliferative activity, MSS HT-29 cells (CTG, 5 days); type: cell-based; settings: Homo sapiens, 120 h
# Method: The molecules of the present disclosure were tested for their anti-proliferative activity against MSS tumor cells.
# as §1, with “MSS HT-29” for “MSI-unstable SW48”, “McCoy's 5A” for “RPMI 1640”
# [5] = female, CD1, mouse, plasma, IV 2 mg/kg
# [6] = female, CD1, mouse, plasma, PO 10 mg/kg
# [7] = Homo sapiens, read-out: Average value/ Inhibition rate
# [8] = Homo sapiens, read-out: Test 1/ Inhibition rate
# [9] = Homo sapiens, read-out: Test 2/ Inhibition rate
# Chain of WRN helicase (Q14191 whole entry): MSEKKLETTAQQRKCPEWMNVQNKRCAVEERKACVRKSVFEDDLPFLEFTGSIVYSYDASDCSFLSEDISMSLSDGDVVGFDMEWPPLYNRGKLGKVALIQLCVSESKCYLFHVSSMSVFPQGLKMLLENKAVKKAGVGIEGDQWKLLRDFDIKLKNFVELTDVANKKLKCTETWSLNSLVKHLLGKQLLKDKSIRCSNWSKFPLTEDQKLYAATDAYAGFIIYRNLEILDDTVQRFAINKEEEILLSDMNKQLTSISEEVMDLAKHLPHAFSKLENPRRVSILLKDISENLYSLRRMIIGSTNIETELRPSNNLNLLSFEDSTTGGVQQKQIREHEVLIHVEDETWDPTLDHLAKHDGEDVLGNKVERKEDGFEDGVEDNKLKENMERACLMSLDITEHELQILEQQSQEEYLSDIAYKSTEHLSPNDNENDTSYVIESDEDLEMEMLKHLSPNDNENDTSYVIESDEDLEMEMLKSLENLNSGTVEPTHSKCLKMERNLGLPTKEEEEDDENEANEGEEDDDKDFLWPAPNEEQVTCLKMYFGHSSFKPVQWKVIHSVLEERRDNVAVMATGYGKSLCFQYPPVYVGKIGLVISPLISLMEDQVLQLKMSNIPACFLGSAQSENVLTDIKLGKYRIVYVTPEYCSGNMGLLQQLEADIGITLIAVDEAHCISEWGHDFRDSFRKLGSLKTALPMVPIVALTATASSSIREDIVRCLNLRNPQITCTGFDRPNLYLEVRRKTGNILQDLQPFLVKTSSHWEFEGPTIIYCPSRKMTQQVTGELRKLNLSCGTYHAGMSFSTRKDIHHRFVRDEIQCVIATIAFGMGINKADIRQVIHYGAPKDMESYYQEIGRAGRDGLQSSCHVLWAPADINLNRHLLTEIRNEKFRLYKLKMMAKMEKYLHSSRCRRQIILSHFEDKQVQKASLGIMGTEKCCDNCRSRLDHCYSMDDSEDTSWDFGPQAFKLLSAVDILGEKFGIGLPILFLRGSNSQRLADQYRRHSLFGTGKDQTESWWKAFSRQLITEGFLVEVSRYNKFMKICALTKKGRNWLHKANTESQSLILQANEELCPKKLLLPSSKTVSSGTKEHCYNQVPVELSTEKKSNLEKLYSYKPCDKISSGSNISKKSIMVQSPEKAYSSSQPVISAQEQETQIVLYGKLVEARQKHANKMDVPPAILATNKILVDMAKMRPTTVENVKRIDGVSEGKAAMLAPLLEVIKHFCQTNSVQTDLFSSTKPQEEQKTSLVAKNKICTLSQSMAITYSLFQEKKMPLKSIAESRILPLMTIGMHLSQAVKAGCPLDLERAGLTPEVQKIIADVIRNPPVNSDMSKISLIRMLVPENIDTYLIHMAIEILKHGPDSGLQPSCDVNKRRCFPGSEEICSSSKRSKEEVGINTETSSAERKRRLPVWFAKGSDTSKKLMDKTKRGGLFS
smiles,measurement,setting,value
CCc1c(N2CCN(C(=O)c3ncnc(C)c3O)CC2)c(=O)n2nc(C3=CCOCC3)nc2n1CC(=O)Nc1ccc(C(F)(F)F)c2sccc12 [Compound H13],IC50,WRN helicase,1.2 nM
same,F,[1]; PO 10 mg/kg vs IV 2 mg/kg,24%
same,clearance,[1]; [5],42.9 mL/min/kg
same,AUC(0-t),[1]; [5],722 ng·h/mL
same,C0,"[1]; female, CD1, mouse, plasma, IV 2 mg/kg, read-out: C0",2530 ng/mL
same,half-life,[1]; [6],66 min
same,AUC(0-t),[1]; [6],943 ng·h/mL
same,Cmax,"[1]; female, CD1, mouse, plasma, PO 10 mg/kg, read-out: Cmax",551 ng/mL
same,Tmax,"[1]; female, CD1, mouse, plasma, PO 10 mg/kg, read-out: Tmax",30 min
same,inhibitory activity on SW48 cells,[2]; 39 nM,high inhibitory activity
same,inhibition at 38.15 pM,[2]; [7],-1.31%
same,inhibition at 38.15 pM,[2]; [8],-1.51%
same,inhibition at 38.15 pM,[2]; [9],-1.1%
same,inhibition at 0.000152588 µM,[2]; [7],0.853%
same,inhibition at 0.000152588 µM,[2]; [8],2.48%
same,inhibition at 0.000152588 µM,[2]; [9],-0.775%
same,inhibition at 0.000610352 µM,[2]; [7],-1.43%
same,inhibition at 0.000610352 µM,[2]; [8],-3.56%
same,inhibition at 0.000610352 µM,[2]; [9],0.706%
same,inhibition at 0.00244141 µM,[2]; [7],-3.17%
same,inhibition at 0.00244141 µM,[2]; [8],0.0291%
same,inhibition at 0.00244141 µM,[2]; [9],-6.36%
same,inhibition at 0.00976562 µM,[2]; [7],0.332%
same,inhibition at 0.00976562 µM,[2]; [8],-3.9%
same,inhibition at 0.00976562 µM,[2]; [9],4.57%
same,inhibition at 0.0390625 µM,[2]; [7],76.4%
same,inhibition at 0.0390625 µM,[2]; [8],76.2%
same,inhibition at 0.0390625 µM,[2]; [9],76.6%
same,inhibition at 0.15625 µM,[2]; [7],97.6%
same,inhibition at 0.15625 µM,[2]; [8],98.6%
same,inhibition at 0.15625 µM,[2]; [9],96.6%
same,inhibition at 0.625 µM,[2]; [7],99.4%
same,inhibition at 0.625 µM,[2]; [8],99.6%
same,inhibition at 0.625 µM,[2]; [9],99.2%
same,inhibition at […],[2]; [7],99.6%
same,inhibition at […],[2]; [8],99.7%
same,inhibition at […],[2]; [9],99.5%
same,inhibition at 10 µM,[2]; [7],101%
same,inhibition at 10 µM,[2]; [8],103%
same,inhibition at 10 µM,[2]; [9],100%
same,IC50,"[2]; Homo sapiens, 120 h, 5 days",28 nM
same,CLint scaled at 1 μM,[3],7.9 mL/min/kg
same,microsomal CLint at 1 μM,[3]; read-out: Human Clint μL/min/mg Protein,6.3 µL/min/mg
same,IC50,[4],> 10000 nM
